US8975235B2, “Lysophosphatidic acid receptor antagonists” (InterMune, Inc., priority 2011, dated 2015)

Legend:
Assay type in all cases: cell-based
Human LPA1 [1] = molecular target: T1, Human LPA1 (Homo sapiens, UniProt Q92633); assay: Beta-Arrestin based assay for human LPA1R antagonists (PathHunter); parameters: host or cells: CHO; conditions: CHO cells stably expressing ProLink tagged human LPA1R; agonist LPA 0.5 micromolar
Method in brief: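 CHO cells stably expressing ProLink-tagged human LPA1R with β-arrestin–EA fusion, assayed by β-galactosidase complementation. Antagonists tested against 0.5 micromolar LPA ([…]), in quadruplicate. End-point luminescence fitted to a 4-parameter logistic to give IC50.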

Human LPA1 [2] = molecular target: T1, Human LPA1; assay: LPA1 calcium flux assay; parameters: the full-length cDNA for human LPA1 is obtained by PCR of the reverse transcription reaction; expressed in transfected cells; host or cells: CHO; conditions: human LPA1 expressing CHO cells; stimulated with 10 nM LPA; read-out: Ca Flux LPA1 IC50
Description: Establishment of a CHO Cell Line Stably Expressing Human LPA1
A 1.1 kb cDNA encoding the human LPA1 receptor is cloned from human lung. Human lung RNA (Clontech Laboratories, Inc. USA) is reverse transcribed using the RETROscript kit (Ambion, Inc.) and the full-length cDNA for human LPA1 is obtained by PCR of the reverse transcription reaction. The nucleotide sequence of the cloned human LPA1 is determined by sequencing and is confirmed to be identical to the published human LPA1 sequence (An et al. Biochem. Biophys. Res. Commun. 231:619 (1997). The cDNA is cloned into the pcDNA5 pcDNA5/FRT expression plasmid and is transfected in CHO cells using lipofectamine 2000 (Invitrogen Corp., USA). Clones stably expressing human LPA1 are selected using hygromycin and identified as cells that show Ca-influx in response to LPA.
(§1) LPA1 and LPA3 Calcium Flux Assays
(§2) Human LPA1 or LPA3 expressing CHO cells were seeded at 20,000-45,000 cells per well in a 96-well poly-D-lysine coated plate one or two days before the assay. Prior to the assay, the cells were washed once with PBS and then cultured in serum-free media overnight. On the day of the assay, a calcium indicator dye (Calcium 4, Molecular Devices) in assay buffer (HBSS with Ca^2+ and Mg^2+ and containing 20 mM Hepes and 0.3% fatty-acid free human serum albumin) was added to each well and incubation continued for 1 hour at 37° C. 10 μl of test compounds in 2.5% DMSO were added to the cells and incubation continued at room temperature for 30 minutes. Cells were then stimulated by the addition of 10 nM LPA and intracellular Ca^2+ measured using the Flexstation 3 (Molecular Devices). IC50s were determined using Graphpad prism analysis of drug titration curves.

Human LPA3 = molecular target: T2, Human LPA3 (Homo sapiens, UniProt Q9UBY5); assay: LPA3 calcium flux assay; conditions: human LPA3 expressing CHO cells; stimulated with 10 nM LPA; read-out: Ca Flux LPA3 IC50
T2 construct: The full-length cDNA fragment for human LPA3 is obtained by PCR from the vector; expressed in transfected cells; host or cells: CHO
T2 sequence (Q9UBY5 1-353): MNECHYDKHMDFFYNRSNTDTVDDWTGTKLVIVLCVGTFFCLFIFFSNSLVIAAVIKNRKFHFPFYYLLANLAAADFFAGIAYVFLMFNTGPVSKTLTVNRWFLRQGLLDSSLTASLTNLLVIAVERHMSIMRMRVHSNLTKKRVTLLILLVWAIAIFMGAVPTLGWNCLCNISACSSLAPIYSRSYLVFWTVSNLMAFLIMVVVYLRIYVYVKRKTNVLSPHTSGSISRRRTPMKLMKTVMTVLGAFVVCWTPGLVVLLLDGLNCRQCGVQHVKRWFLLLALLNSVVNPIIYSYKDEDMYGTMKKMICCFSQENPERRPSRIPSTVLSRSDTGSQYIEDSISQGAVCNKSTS
Description: Establishment of a CHO Cell Line Stably Expressing Human LPA3
A vector containing the human LPA3 receptor cDNA is obtained from the Missouri S&T cDNA Resource Center (www.cdna.org). The full-length cDNA fragment for human LPA3 is obtained by PCR from the vector. The nucleotide sequence of the cloned human LPA3 is determined by sequencing and is confirmed to be identical to the published human LPA3 sequence (NCBI accession number NM_012152). The cDNA is cloned into the pcDNA5 pcDNA5/FRT expression plasmid and is transfected in CHO cells using lipofectamine 2000 (Invitrogen Corp., USA). Clones stably expressing human LPA3 are selected using hygromycin and identified as cells that show Ca-influx in response to LPA.
as §1, §2

T1 sequence (Q92633 whole entry, the tested form may be a part): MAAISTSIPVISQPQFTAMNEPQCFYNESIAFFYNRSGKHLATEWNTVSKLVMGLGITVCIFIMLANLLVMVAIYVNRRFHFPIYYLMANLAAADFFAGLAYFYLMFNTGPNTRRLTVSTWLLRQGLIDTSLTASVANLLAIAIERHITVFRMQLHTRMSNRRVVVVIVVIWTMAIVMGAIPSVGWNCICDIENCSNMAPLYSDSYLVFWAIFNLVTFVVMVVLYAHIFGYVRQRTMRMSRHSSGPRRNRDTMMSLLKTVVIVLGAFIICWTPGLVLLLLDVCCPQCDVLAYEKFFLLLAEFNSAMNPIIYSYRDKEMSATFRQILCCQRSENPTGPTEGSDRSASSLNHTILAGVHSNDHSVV

Compound | EC50 (Human LPA1 [1]) [nM] | IC50 (Human LPA1 [2]) [nM] | IC50 (Human LPA3) [nM]
C[C@@H](OC(=O)Nc1c(-c2ccc(-c3ccc(C4(C(=O)O)CC4)cc3)cc2)oc2ccc(F)cc12)c1ccccc1Cl [Compound 60] | 50 to 500 | > 500 | –
C[C@@H](OC(=O)Nc1c(-c2cc(Cl)c(-c3ccc(C4(C(=O)O)CC4)cc3)cc2F)cnn1C)c1ccccc1 [Compound 201] | < 50 | < 50 | –
Cc1nsc(-c2ccc(-c3ccc(C4(C(=O)O)CC4)cc3)cc2)c1NC(=O)OCc1ccccc1Cl [Compound 46] | 50 to 500 | 50 to 500 | –
Cc1nsc(-c2ccc(-c3ccc(C(C(=O)O)c4ccccc4)cc3)cc2)c1NC(=O)O[C@H](C)c1ccccc1Cl (single isomer, unassigned) [Compound 71] | 50 to 500 | > 500 | –
C[C@@H](OC(=O)Nc1ccn(-c2ccc(-c3ccc(C4(C(=O)O)CC4)cc3)cc2)n1)c1ccccc1Cl [Compound 68] | > 500 | > 500 | –
Cc1nsc(-c2ccc(-c3ccc(C4(C(=O)O)COC4)cc3)cc2)c1NC(=O)O[C@H](C)c1ccccc1 [Compound 241] | 50 to 500 | 50 to 500 | –
Cc1snc(-c2ccc(-c3ccc(C4(C(=O)O)CC4)cc3)cc2)c1NC(=O)O[C@H](C)c1ccccc1 [Compound 105] | < 50 | < 50 | –
Cc1noc(-c2ccc3c(c2)CCc2cc(CC(=O)O)ccc2-3)c1NC(=O)O[C@H](C)c1ccccc1Cl [Compound 78] | 50 to 500 | 50 to 500 | –
Cc1noc(-c2ccc3cc(C#CC4(C(=O)O)CC4)ccc3c2)c1NC(=O)O[C@H](C)c1ccccc1 [Compound 140] | < 50 | < 50 | –
C[C@@H](OC(=O)Nc1c(-c2ccc(-c3ccc(C4(C(=O)O)CC4)cc3)cc2)oc2cc(F)ccc12)c1ccccc1Cl [Compound 61] | < 50 | > 500 | –
Cc1ccccc1[C@@H](C)OC(=O)Nc1c(C)nsc1-c1ccc(-c2ccc(C3(C(=O)O)CC3)cc2)cc1 [Compound 86] | < 50 | 50 to 500 | –
Cc1nsc(-c2ccc(-c3ccc(C4(C(=O)O)CC4)cc3)cc2)c1NC(=O)O[C@H](C)c1ccccc1F [Compound 83] | < 50 | 50 to 500 | –
C[C@@H](OC(=O)Nc1c(-c2cc(F)c(-c3ccc(C4(C(=O)O)CC4)cc3)cc2F)cnn1C)c1ccccc1 [Compound 200] | < 50 | 50 to 500 | –
Cc1noc(-c2ccc(-c3ccc(C4(C(=O)O)COC4)cc3)cc2)c1NC(=O)O[C@H](C)c1ccccc1 [Compound 80] | < 50 | 50 to 500 | –

The remaining lines, values ahead:

EC50 (Human LPA1 [1]) [nM] | IC50 (Human LPA1 [2]) [nM] | IC50 (Human LPA3) [nM] | Compound
< 50 | 50 to 500 | – | Cc1nsc(-c2cc(Cl)c(-c3ccc(C4(C(=O)O)CC4)cc3)cc2F)c1NC(=O)O[C@H](C)c1ccccc1 [Compound 179]
< 50 | 50 to 500 | – | C[C@@H](OC(=O)Nc1ocnc1-c1ccc(-c2ccc(C3(C(=O)O)CC3)cc2)cc1)c1ccccc1Cl [Compound 147]
< 50 | < 50 | – | Cc1onc(-c2ccc(-c3ccc(C4(C(=O)O)CC4)cc3)cc2)c1NC(=O)O[C@H](C)c1ccccc1Cl [Compound 30]
< 50 | < 50 | > 500 | C[C@@H](OC(=O)Nc1c(-c2ccc(-c3ccc(C4(C(=O)O)CC4)cc3)cc2)cnn1C)c1ccccc1Cl [Compound 171]
< 50 | > 500 | – | Cc1nsc(-c2ccc(-c3ccc(C(C(=O)O)c4ccccc4)cc3)cc2)c1NC(=O)O[C@H](C)c1ccccc1Cl (single isomer, unassigned) [Compound 70]
< 50 | 50 to 500 | > 500 | C[C@@H](OC(=O)Nc1c(-c2ccc(-c3ccc(C4(C(=O)O)CC4)cc3)cc2)oc2cnccc12)c1ccccc1Cl [Compound 149]
